Test results reported in patent US6821988B2, “3-cyanoquinolines as inhibitors of EGF-R and HER2 kinases” (Wyeth Holdings Corporation, priority 2001, dated 2004).
Values after ≈ are worked out from the molar mass of the structure shown. Values joined by “and” are separate entries in the source; they are usually repeats but may differ in a detail not shown here. Equal values may be shown once.

What was measured:
[1] = target: T1, EGFR cytoplasmic domain (EGFR-CD, amino acid 645-1186) (Homo sapiens, UniProt P00533); experiment: Inhibition of EGF-R kinase autophosphorylation, recombinant enzyme, DELFIA/time-resolved fluorometry; format: biochemical
T1 construct: EGFR cytoplasmic domain (EGFR-CD, amino acid 645-1186); made in house; host or cells: Sf-9 insect cells, baculovirus (pFASTBacHTc)
Description: (§1) A 1.7 kb cDNA encoding human HER2 cytoplasmic domain (HER2-CD, amino acid 676-1255) and 1.6 kb cDNA for EGFR cytoplasmic domain (EGFR-CD, amino acid 645-1186) were cloned into baculoviral expression vectors, pBlueBacHis2B (Invitrogen) and pFASTBacHTc (GIBCO), separately. A sequence encoding (His)6 is located at the 5′ end upstream to HER2 and EGFR sequences. Sf-9 cells were infected at moi=10 for 3 days for protein expression. Sf-9 cell pellets were solubilized on ice in buffer containing 50 mM HEPES, pH 7.4, 10 mM NaCl, 1% Triton, 10 μM ammonium molybdate, 100 μM sodium vanadate, 10 μg/ml aprotinin, 10 μg/ml leupeptin, 10 μg/ml pepstatin, and 16 ug/ml benzamidine HCl for 20 min followed by 20 min centrifugation. Crude extract supernatant was passed through equilibrated Ni-NTA superflow packed column (Qiagen, Valencia, Calif.) and wash with 10 mM, and 100 mM imidazole to remove unspecific binding. Histidine-tagged proteins were eluted with 250 mM and 500 mM imidazole and dialyzed against 50 mM NaCl, 20 mM HEPES, 10% glycerol and 1 μg/ml each of aprotinin, leupeptin and pepstatin for 2 h. All the purification procedure was performed at 4° C. or on ice. Purified materials were subjected for electrophoresis followed by Coommassie blue stain to determine the purity of the preparation and Western blot for the identity of protein. Enzymes were aliquoted and stored at −80° C.
(§2) Inhibition of EGFR and HER2 kinase autophosphorylation was measured by a DELFIA/time-resolved fluorometry assay. Compounds were dissolved in 100% DMSO and diluted to the appropriate concentrations with 25 mM HEPES, pH 7.4. In each well, 10 μl of compound was incubated with 10 μl of recombinant EGF-R or HER2 enzyme (1:80 dilution in 100 mM HEPES) for 10 min at room temperature. Then, 10 μl of 5×buffer (containing 20 mM HEPES, 2 mM MnCl2, 100 uM Na3VO4 and 1 mM DTT) and 20 μl of 0.1 mM ATP/50 mM MgCl2 was added for 1 h. Positive and negative controls were included in each plate by incubation of enzyme with or without ATP/MgCl2. At the end of incubation, liquid was aspirated and washed three times with wash buffer. 75 μl (400 ng).of europium-labeled anti-phosphotyrosine antibody was added to each well for another hour of incubation. After wash, enhancement solution was added and the signal was detected by Victor (Wallac Inc) with excitation at the wavelength of 340 nm and emission at the wavelength of 615 nm. All reagents were supplied by Wallac Inc (Wallac/Perkin-Elimer). Percentage of autophosphorylation inhibition by compound was calculated by […]. IC50 values were obtained from curves of percentage inhibition with 8 doses of compound.

BT474 (breast carcinoma) = experiment: Inhibition of cancer cell growth, sulforhodamine B assay, BT474; format: cell-based; details: Homo sapiens, BT-474, 48 h; BT474, 2 days; read-out: Inhibition of Cancer Cell Growth in vitro IC50, BT474
Description: (§3) […], A431 (epidermoid carcinoma), SKBR3 (breast carcinoma), SW620 (colon carcinoma), and MDA-MB435 (breast carcinoma), BT474 (breast carcinoma), and two murine lines, 3T3 (murine fiboblasts) and HER2-3T3 (murine fiboblasts transfected with human HER2) were used for cell proliferation assays. Cells were maintained in RPMI -1640 medium supplemented with 5% fetal bovine serum. Cells were plated in 96-well plates at the densities of 2.5×10^4/ml for 3T3 and 3T3/HER2 and 5.0×10^4/ml for the rest of the cell lines. On the next day, compounds were dosed at 0.5, 5, 50, 500, and 5000 ng/ml and cultured for 2 days. At the end of incubation, cell survival was determined by the sulforhodamine B assay as previously described (Skehan, P; Stornet, R.; Scudiero, D.; Monks, A.; McMahon, J.; Vistica D., Warren, J.; Bokbosch, H.; Kenny, S.; Boyd, M. New Colorimetric Cytotoxic Assay for Anticancer-Drug Screening. J. Natl. Cancer Inst. 1990, 82, 1107-1112). The IC50 values (the concentration needed to inhibit cell growth by 50%) were obtained from the growth curves and are shown below in Table 2 where the results of multiple determinations are included.

[2] = test system: HER2-3T3 (murine fiboblasts transfected with human HER2); experiment: Inhibition of cell growth, sulforhodamine B assay, HER2-3T3; format: cell-based; details: HER2-3T3, 2 days; for IC50: Mus musculus, 48 h, read-out: Inhibition of Cancer Cell Growth in vitro IC50, HER2-3T3
Description: as §3

[3] = target: T2, human HER2 cytoplasmic domain (HER2-CD, amino acid 676-1255) (Homo sapiens, UniProt P04626); experiment: Inhibition of HER2 kinase autophosphorylation, recombinant enzyme, DELFIA/time-resolved fluorometry; format: biochemical; details: for inhibition at 2 µg/mL: read-out: HER2 % Inhibition at 2 μg/mL; for IC50: recombinant HER2 autophosphorylation
T2 construct: human HER2 cytoplasmic domain (HER2-CD, amino acid 676-1255); made in house; host or cells: Sf-9 insect cells, baculovirus (pBlueBacHis2B)
Description: as §1, §2

3T3 (murine fiboblasts) = experiment: Inhibition of cell growth, sulforhodamine B assay, 3T3; format: cell-based; details: 3T3, 2 days; for IC50: Mus musculus, 48 h, read-out: Inhibition of Cancer Cell Growth in vitro IC50, 3T3
Description: as §3

[4] = test system: A431 (epidermoid carcinoma); experiment: Inhibition of cancer cell growth, sulforhodamine B assay, A431; format: cell-based, human; details: A431, 2 days; for IC50: Homo sapiens, A-431, 48 h, read-out: Inhibition of Cancer Cell Growth in vitro IC50, A431
Description: as §3

SW620 (colon carcinoma) = experiment: Inhibition of cancer cell growth, sulforhodamine B assay, SW620; format: cell-based, human; details: SW620, 2 days; for IC50: Homo sapiens, SW-620, 48 h, read-out: Inhibition of Cancer Cell Growth in vitro IC50, SW620
Description: as §3

[5] = test system: MDA-MB435 (breast carcinoma); experiment: Inhibition of cancer cell growth, sulforhodamine B assay, MDA-MB435; format: cell-based, human; details: MDA-MB435, 2 days
Description: as §3

SKBR3 (breast carcinoma) = experiment: Inhibition of cancer cell growth, sulforhodamine B assay, SKBR3; format: cell-based, human; details: SKBR3, 2 days; for IC50: Homo sapiens, SK-BR-3, 48 h, read-out: Inhibition of Cancer Cell Growth in vitro IC50, SKBR3
Description: as §3

T2 sequence (P04626 676-1255): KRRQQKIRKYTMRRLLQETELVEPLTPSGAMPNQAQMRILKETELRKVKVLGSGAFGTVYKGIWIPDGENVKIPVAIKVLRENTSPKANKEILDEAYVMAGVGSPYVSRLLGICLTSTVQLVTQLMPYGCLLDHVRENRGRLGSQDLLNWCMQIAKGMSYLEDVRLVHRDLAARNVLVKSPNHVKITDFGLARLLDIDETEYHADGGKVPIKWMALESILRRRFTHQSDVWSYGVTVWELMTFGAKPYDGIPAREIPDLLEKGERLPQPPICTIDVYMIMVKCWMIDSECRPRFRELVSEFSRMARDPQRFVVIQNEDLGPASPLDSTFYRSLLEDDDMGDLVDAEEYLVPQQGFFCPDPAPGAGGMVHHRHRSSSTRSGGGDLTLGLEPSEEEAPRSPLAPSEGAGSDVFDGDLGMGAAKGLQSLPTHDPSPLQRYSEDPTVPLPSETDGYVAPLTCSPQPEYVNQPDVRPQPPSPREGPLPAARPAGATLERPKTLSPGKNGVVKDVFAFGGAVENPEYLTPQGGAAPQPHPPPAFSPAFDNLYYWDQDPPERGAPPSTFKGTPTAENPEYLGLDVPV
T1 sequence (P00533 669-1210): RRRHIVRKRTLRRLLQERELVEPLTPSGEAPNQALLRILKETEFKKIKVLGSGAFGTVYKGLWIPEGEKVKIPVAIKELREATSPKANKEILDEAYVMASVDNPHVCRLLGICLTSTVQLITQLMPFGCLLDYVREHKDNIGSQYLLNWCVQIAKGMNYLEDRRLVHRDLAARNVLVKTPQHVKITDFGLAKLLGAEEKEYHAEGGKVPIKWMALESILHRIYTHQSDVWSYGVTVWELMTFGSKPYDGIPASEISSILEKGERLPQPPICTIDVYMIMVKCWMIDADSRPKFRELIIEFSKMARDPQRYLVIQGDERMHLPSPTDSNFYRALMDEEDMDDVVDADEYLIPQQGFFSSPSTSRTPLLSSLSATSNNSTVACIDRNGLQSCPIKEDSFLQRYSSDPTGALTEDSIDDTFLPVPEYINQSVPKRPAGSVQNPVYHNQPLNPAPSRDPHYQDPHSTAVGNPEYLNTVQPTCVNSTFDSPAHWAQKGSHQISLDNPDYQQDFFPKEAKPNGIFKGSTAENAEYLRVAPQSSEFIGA

Row | IC50 [1] | IC50 (BT474 (breast carcinoma)) | inhibition at 2 µg/mL [3] | IC50 [3] | Inhibition of Cancer Cell Growth in vitro IC50, A431 [4] | IC50 [4] | IC50 (SW620 (colon carcinoma)) | Inhibition of Cancer Cell Growth in vitro IC50, SW620 (SW620 (colon carcinoma)) | melting point | IC50 ([5]; Homo sapiens, MDA-MB-435, 48 h, read-out: Inhibition of Cancer Cell Growth in vitro IC50, MDA-MB435) | Inhibition of Cancer Cell Growth in vitro IC50, MDA-MB435 [5] | IC50 (SKBR3 (breast carcinoma)) | Inhibition of Cancer Cell Growth in vitro IC50, SKBR3 (SKBR3 (breast carcinoma)) | EGF-R IC50 [1] | SMILES | Inhibition of Cancer Cell Growth in vitro IC50, HER2-3T3 [2] | IC50 [2] | Inhibition of Cancer Cell Growth in vitro IC50, 3T3 (3T3 (murine fiboblasts)) | IC50 (3T3 (murine fiboblasts))
1 | 4.76 µM | 0.02 µg/mL (≈ 0.0297 µM) | 63% | 1.32 µM and 0.787 µM | 0.37 µg/mL and 0.28 µg/mL | 0.242 µg/mL (≈ 0.36 µM) |  |  |  |  |  |  |  |  | COc1cc2ncc(C#N)c(Nc3ccc(Sc4nc(-c5ccccc5)cs4)c(Cl)c3)c2cc1NC(=O)CC(CN(C)C)N(C)C (stereo not drawn) [Example 1] | 0.04 µg/mL and 0.03 µg/mL | 0.041 µg/mL (≈ 0.061 µM) | 0.7 µg/mL and 0.57 µg/mL | 0.76 µg/mL (≈ 1.13 µM)
2 |  |  | 57% |  | 0.466 µg/mL | 0.572 µg/mL (≈ 0.981 µM) | 2.95 µg/mL (≈ 5.06 µM) | 2.58 µg/mL | 139 to 143 °C | 4.05 µg/mL (≈ 6.95 µM) | 3.25 µg/mL | 0.129 µg/mL (≈ 0.221 µM) | 0.128 µg/mL |  | COc1cc2ncc(C#N)c(Nc3ccc(F)c(Cl)c3)c2cc1NC(=O)CC(CN1CCC(O)C1)N1CCC(O)C1 (stereo not drawn) [Example 2, N-[4-(3-Chloro-4-fluoro-phenylamino)-3-cyano-7-methoxy-quinolin-6-yl]-3,4-bis-(3-hydroxy-pyrrolidin-1-yl)-butyramide] | 0.702 µg/mL | 1.26 µg/mL (≈ 2.16 µM) | 4.39 µg/mL | 4.47 µg/mL (≈ 7.67 µM)
3 |  |  |  | 10 µM | 0.27 µg/mL | 0.48 µg/mL (≈ 1.02 µM) | 1.1 µg/mL (≈ 2.34 µM) |  |  |  |  | 0.11 µg/mL (≈ 0.234 µM) | 0.17 µg/mL | 0.33 µg/mL | CCOc1cc2ncc(C#N)c(Nc3ccc(F)c(Cl)c3)c2cc1NC(=O)CC(C)N(C)C (stereo not drawn) [Example 3, N-[4-(3-Chloro-4-fluoroanilino)-3-cyano-7-ethoxy-6-quinolinyl]-3-(dimethylamino)butanamide] |  | 1.7 µg/mL (≈ 3.62 µM) |  | 1.3 µg/mL (≈ 2.77 µM)
